Data from PubChem BioAssay (NCI).
Several values for one entry are separate records, joined by “and”; a condition that tells them apart may be missing. Equal entries are not always repeated.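 Grown in 96-well plates, cells were treated for 48 hours with each compound at five concentrations. Insufficient inhibition: endpoint recorded as highest concentration tested. GI50 = concentration required for 50% inhibition of growth. TGI is the concentration that stops growth completely.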

Legend:
Assay in all cases: inhibition of tumour cell growth, NCI panel, 48 h
HCC-2998 colon = tested on: HCC-2998 colon
HCT-116 colon = tested on: HCT-116 colon
HOP-92 NSCLC = tested on: HOP-92 NSCLC
SK-MEL-5 melanoma = tested on: SK-MEL-5 melanoma
CCRF-CEM leukemia = tested on: CCRF-CEM leukemia
NCI/ADR-RES ovarian = tested on: NCI/ADR-RES ovarian
CAKI-1 renal = tested on: CAKI-1 renal
SR leukemia = tested on: SR leukemia
786-0 renal = tested on: 786-0 renal
K-562 leukemia = tested on: K-562 leukemia

| SMILES | GI50 (HCC-2998 colon) | TGI (HCC-2998 colon) | GI50 (HCT-116 colon) | TGI (HCT-116 colon) | GI50 (HOP-92 NSCLC) | TGI (HOP-92 NSCLC) | GI50 (SK-MEL-5 melanoma) [µM] | TGI (SK-MEL-5 melanoma) [µM] | GI50 (CCRF-CEM leukemia) | TGI (CCRF-CEM leukemia) | GI50 (NCI/ADR-RES ovarian) | TGI (NCI/ADR-RES ovarian) | GI50 (CAKI-1 renal) | TGI (CAKI-1 renal) | GI50 (SR leukemia) | TGI (SR leukemia) | GI50 (786-0 renal) | TGI (786-0 renal) | GI50 (K-562 leukemia) | TGI (K-562 leukemia) |
| --- | --- | --- | --- | --- | --- | --- | --- | --- | --- | --- | --- | --- | --- | --- | --- | --- | --- | --- | --- | --- |
| O=C1NC(=O)/C(=C\c2ccccc2)C2=C1CCCC2 | 7.46 µM | 14 µM | 3.38 µM | 11.1 µM | 15.9 µM | 38.2 µM | 1.81 | 3.52 | 3.7 µM | > 37.9 µM | 7.54 µM | 19.2 µM | 5.63 µM | 17.3 µM | 2.35 µM | 5.77 µM | 7.6 µM | 20.2 µM | 5.39 µM | > 40.3 µM |
| OCc1ccn2c1[C@@H](O)CC2 | – | > 100 µM | – | > 100 µM | – | > 100 µM | – | > 100 | – | > 100 µM | – | > 100 µM | – | > 100 µM | – | > 100 µM | – | > 100 µM | – | > 100 µM |
| COc1cc(C(=O)N2CCN(c3ncccn3)CC2)c(N)cc1OCc1ccccc1 | > 100 µM | > 100 µM | > 100 µM | > 100 µM | > 100 µM | > 100 µM | 44.5 | > 100 | > 100 µM | > 100 µM | > 100 µM | > 100 µM | 11.9 µM | > 100 µM | > 100 µM | > 100 µM | > 100 µM | > 100 µM | > 100 µM | > 100 µM |
| COc1cc(OC)c(/C=C/c2c3ccccc3cc[n+]2C)c(OC)c1 | 1.65 µM | 14.7 µM | 1.4 µM | 13.5 µM | 1.8 µM | 12.4 µM | 0.642 | 2.21 | 2.08 µM | > 72.1 µM | > 85.5 µM | > 100 µM | 18.6 µM | > 100 µM | 2 µM | 41.2 µM | 7.37 µM | > 100 µM | 0.863 µM | > 100 µM |
| NC(=O)OCCn1cc(-c2nc(-c3c[nH]c4ncccc34)cs2)c2ccccc21 | 1.99 µM | 6.54 µM | 1.72 µM | 5.02 µM | 0.668 µM | 3.71 µM | 1.41 | 2.85 | 2.65 µM | 16.9 µM | 2.82 µM | > 100 µM | 2.42 µM | 8.54 µM | 1.08 µM | 7.05 µM | 2.38 µM | 7.23 µM | 1.55 µM | 14 µM |
| CCN(Cc1ccccc1C)c1ccc(CO)c(Cl)c1 | 14.4 µM | 30.6 µM | 0.445 µM | 11.6 µM | 1.83 µM | 9.14 µM | 4.77 | 11.9 | 15.5 µM | 38.2 µM | 14.5 µM | 43.8 µM | 7.88 µM | 32 µM | 9.29 µM | 32.6 µM | 15 µM | 30.9 µM | 3.1 µM | 13.8 µM |
| Cn1cc(C2=C(c3cccc(Br)c3)C(=O)NC2=O)c2ccccc21 | > 16 µM | > 25 µM | 7.62 µM | > 25 µM | 8.62 µM | > 25 µM | 6.23 | 22.3 | 12.3 µM | > 25 µM | 8.85 µM | > 25 µM | 9.63 µM | > 25 µM | 7.33 µM | > 25 µM | 12.1 µM | > 25 µM | 8.65 µM | > 25 µM |
| Cc1cc(C)c(/C=C2\C(=O)Nc3ccc(NC(=O)CCCCCCC(=O)NO)cc32)[nH]1 | 5.68 µM | > 100 µM | 0.3 µM | 4.86 µM | 0.47 µM | > 100 µM | 0.335 | 14.7 | 0.311 µM | > 100 µM | > 100 µM | > 100 µM | > 100 µM | > 100 µM | 0.416 µM | > 100 µM | 15.1 µM | > 100 µM | 0.373 µM | > 100 µM |
| c1ccc2c(c1)c1c(c3ccccc32)CN2CCCC2C1 (stereo not given) | – | 17.1 µM | – | 14.7 µM | – | 13.4 µM | – | 11.2 | – | 15.5 µM | – | > 41.5 µM | – | > 100 µM | – | > 100 µM | – | 23.1 µM | – | > 100 µM |
| Cc1cc(C)c(NC(=O)c2sc3nc4c(cc3c2N)CN(Cc2ccccc2)CC4)c(C)c1 | 5.33 µM | 38.4 µM | 2.89 µM | 16 µM | 0.877 µM | 42.6 µM | 1.47 | 11.5 | 3.16 µM | 59.7 µM | 1.64 µM | 6.24 µM | 2.81 µM | > 100 µM | 1.83 µM | 10.7 µM | 3.48 µM | > 100 µM | 0.903 µM | > 100 µM |
| C#COc1cccc(Nc2c(C#N)cnc3ncc(NC(=O)CCl)cc23)c1 | > 62.5 µM | > 62.5 µM | 14.8 µM | > 62.5 µM | > 62.5 µM | > 62.5 µM | > 62.5 | > 62.5 | 3.72 µM | > 62.5 µM | > 62.5 µM | > 62.5 µM | > 62.5 µM | > 62.5 µM | 17.6 µM | > 62.5 µM | 36.6 µM | > 62.5 µM | 25.9 µM | > 62.5 µM |
| N=C(N)c1ccc2nc(-c3cc(CC(=O)N[C@@H](CC(=O)O)C(=O)O)cc(-c4cc(S(N)(=O)=O)ccc4O)c3O)[nH]c2c1 | > 100 µM | > 100 µM | > 100 µM | > 100 µM | > 100 µM | > 100 µM | > 100 | > 100 | > 100 µM | > 100 µM | > 100 µM | > 100 µM | > 100 µM | > 100 µM | > 100 µM | > 100 µM | > 100 µM | > 100 µM | > 100 µM | > 100 µM |
| N#Cc1c(N/N=C/c2ccc(Cl)cc2Cl)nc(N)nc1N1CCCC1 | > 100 µM | > 100 µM | 20.9 µM | > 100 µM | 17.6 µM | 43.7 µM | 21.5 | > 100 | 23.5 µM | 58.3 µM | 19.4 µM | 82.4 µM | 21.7 µM | 63.2 µM | 10.7 µM | 42.9 µM | 19.5 µM | 47.6 µM | 16.7 µM | 49.5 µM |
| CCOC(=O)/C=C(/C)Sc1cc(O)c2ccccc2c1O | 16.2 µM | 31.1 µM | 2.05 µM | 4.95 µM | 3.21 µM | 11.9 µM | 1.59 | 2.99 | 2.73 µM | 6.83 µM | 3.99 µM | 25.2 µM | 7.33 µM | 20 µM | 1.3 µM | 4.16 µM | 15.2 µM | 28.6 µM | 2.48 µM | 6.68 µM |
| O=C(c1ccc(/C=C/c2n[nH]c3ccccc23)cc1)N1CCNCC1 | > 10 µM and 12.1 µM | > 10 µM and 34.1 µM | 1.5 µM and 2.02 µM | 2.88 µM and 20.9 µM | 2.71 µM and 1.89 µM | > 10 µM and 7.63 µM | 6.9 | 18.5 | 6.03 µM and 10.4 µM | > 10 µM and 75.8 µM | > 10 µM and 15.8 µM | > 10 µM and 36.7 µM | 4.96 µM and 1.35 µM | > 10 µM and 9.11 µM | 1.85 µM and 0.407 µM | 4.23 µM and 10.3 µM | 9.53 µM and 7.98 µM | > 10 µM and 23 µM | 1.45 µM and 1.37 µM | 3.58 µM and 21.5 µM |
| O[C@H](c1cc(C(F)(F)F)nc2c(C(F)(F)F)cccc12)[C@@H]1CCCCN1 | 1.85 µM | 4.13 µM | 2.3 µM | 5.44 µM | 1.79 µM | 8.43 µM | 3.64 | 8.09 | 8.52 µM | 40.7 µM | 3.09 µM | 9.49 µM | 1.96 µM | 7.29 µM | 2.32 µM | 9.5 µM | 4.68 µM | 12.5 µM | 2.87 µM | 9.17 µM |
